Assay results as given in US12104173B2, “Method for differentiation of human pluripotent stem cell lines in suspension culture” (AGENCY FOR SCIENCE, TECHNOLOGY AND RESEARCH, priority 2018, dated 2024).

What was measured:
[1] = test system: X13 induced pluripotent stem cells (iPSCs) on microcarriers; conditions: 24 hours post treatment; 10 μM
Experimental: (§1) (A) is a column graph showing two different concentrations of seven Wnt pathway activators (BIO, SB-216763, CHIR98014, Inhibitor VIII, Kenpaullone, DRF053 dihydrochloride and Wnt3a). which were selected from literature reviews and screened with CHIR99021 as a control for the disclosed hematopoietic differentiation protocol. The viability of the X13 induced pluripotent stem cells (iPSCs) on microcarriers were tabulated accordingly 24 hours post treatment of the various Wnt pathway modulators. […] (B) is a column graph showing the percentage of mesogerm induction.

[2] = test system: X13 induced pluripotent stem cells (iPSCs) on microcarriers; assay: screening of Wnt pathway activators: mesoderm induction (T-bra, KDR+PDGFRα−) by flow cytometry; format: cell-based, human; conditions: compared to other Wnt pathway modulators
Experimental: as §1
Human induced pluripotent stem cell-microcarrier (hiPSC-MC) aggregates (1×10^6 cells/ml, or 1e6 cells/nil) were transferred to mesoderm induction medium (cytokines all from Stemcell Technologies) plus Stemline II Hematopoietic Stem Cell Expansion medium (SL2) in either 6-well ultra-low attachment plates (5 ml) under continuous agitation at 75 rpm or 125 ml spinner flasks (50 ml) under continuous agitation at 36 rpm. Daily medium changes as indicated: Day 0: SL2+30 ng/ml BMP4+50 ng/ml VEGF-165+40 ng/ml Activin A+12-15 μM CHIR-99021; Day 1: SL2+30 ng/ml BMP4+50 ng/ml VEGF-165+40 ng/ml Activin A; Day 2: SL2+20 ng/ml BMP4+30 ng/ml VEGF165+5 ng/ml Activin A+10 ng/ml bFGF+20 ng/ml SCF+0.4 ng/ml β-estradiol. Samples were collected on day 1 and day 3 for flow cytometry analysis of T-brachyury (T-Bra) and KDR/PDGFRα cells, respectively.

[3] = test system: hES-3-MC aggregates (agitation culture); assay: DoE multifactorial mesoderm induction: % KDR+ cells by flow cytometry; format: cell-based, human; conditions: BMP4 10 to 50 ng/ml, Activin A 0-80 ng/ml, CHIR exposure 0 to 24 hours, 4 days post initiation of differentiation
Experimental: (§2) Different doses (and/or duration of exposure) of cytokines and small-molecules with known roles in inducing mesoderm and hematopoietic differentiation were evaluated using the MODDE® software for differentiation of hES-3 MC aggregate cultures initially derived under agitation. The DoE was designed to investigate effects of BMP4 (10-50 ng/ml), Activin A (0 to 80 ng/ml), CHIR (0-15 μM at 0 to 48 hours after start of mesoderm induction). These variables generated 29 culture conditions (FIG. 2A), which were tested for their effects on percent of KDR+ cells (4 days post initiation of differentiation) and the following stage of hematopoietic precursors generation (2 weeks of culture in Blast growth medium (BGM)).
(§3) Design of experiments (DoE) using a resolution IV Fractional Factorial Design was performed using the MODDE software (Sartorius Stedim Biotech, Germany) to evaluate initial BMP4, Activin A and CHIR-99021, doses and duration of exposure for their effects on the following response factors: induction of KDR+ cells 4 days post mesoderm induction or total hematopoietic precursor cells generated 2 weeks post differentiation.
Design of experiments (DoE) using a resolution IV Fractional Factorial Design was performed using the MODDE software (Sartorius Stedim Biotech, Germany) to evaluate initial BMP4, Activin A and CHIR-99021, doses and duration of exposure for their effects on the following response factors: induction of KDR+ cells 4 days post mesoderm induction or total hematopoietic precursors generated 2 weeks post differentiation. […] Computed model with R2 scores>0.5 indicate a model of significant fit, Q2 scores>0.1 indicate a significant model while Q2>0.5 indicate a good model for estimation of future prediction precision, model validity score of <0.25 indicate statistically significant model problems and reproducibility (the variation of the replicates compared to overall variability) should be greater than 0.5. […]

[4] = test system: hES-3-MC aggregates (agitation culture); assay: DoE: hematopoietic precursor generation, 14 days in Blast growth medium (BGM); format: cell-based, human; conditions: BMP4 10 to 50 ng/ml, Activin A 0-80 ng/ml, CHIR exposure 0 to 24 hours, 2 weeks in BGM
Experimental: as §2
Design of experiments (DoE) using a resolution IV Fractional Factorial Design was performed using the MODDE software (Sartorius Stedim Biotech, Germany) to evaluate initial BMP4, Activin A and CHIR-99021, doses and duration of exposure for their effects on the following response factors: induction of KDR+ cells 4 days post mesoderm induction or total hematopoietic precursors generated 2 weeks post differentiation. […] Computed model with R2 scores>0.5 indicate a model of significant fit, Q2 scores>0.1 indicate a significant model while Q2>0.5 indicate a good model for estimation of future prediction precision, model validity score of <0.25 indicate statistically significant model problems and reproducibility (the variation of the replicates compared to overall variability) should be greater than 0.5.
Human pluripotent stem cell-microcarrier (HPSC-MC) aggregates (derived from 7 day continuous agitation conditions), equivalent to 5×10^5 cells, were seeded and differentiated in 24-well ultra-low attachment plates with Stemline II medium using multi-factorial conditions as detailed in FIG. 2A and FIG. 6A, as well as in Table 3. […]
Following 4 days of differentiation, single cells were derived from microcarrier aggregates by treatment with TrypLE. […] Fold-expansion was calculated as total number of cells derived after 2 weeks as compared to initial seeding of 1×10^5 cells.

[5] = test system: O-neg hiPSC line (D5) expanded in agitated microcarrier cultures; assay: DoE multifactorial analysis of KDR+ cells, O-neg hiPSC; format: cell-based, human; conditions: CHIR exposure for 24 hours, 4 days post differentiation
Text: (B) Plot of KDR levels (%) for respective conditions tested (day 4 post differentiation). Conditions 27, 28 and 29 are triplicates of the same condition tested. […] Act=Activin A; CHI=CHIR-99021 for 24 hr, CH2=CHIR-99021 from 24-48 hr; BMP=BMP4. Computed P-values are indicated below the chart.
These findings were also confirmed using an O-neg hiPSC line (D5) expanded in agitated microcarrier cultures (FIG. 6). […] In summary, from the Design of experiment analysis, it was established that a BMP4 dose of 10 to 50 ng/ml, Activin A dose of 25 to 50 ng/ml and exposure of CHIR for 24 hours at a dose of 6 to 12 μM would be efficient for the generation of KDR+ cells.
as §3, with “precursors” for “precursor cells”, “differentiation. […]” for “differentiation.”

## Nc1nc(NCCNc2ncc(-n3ccnc3)c(-c3ccc(Cl)cc3Cl)n2)ccc1[N+](=O)[O-] [CHIR98014]
[1]
  viability of X13 iPSCs on microcarriers: significantly reduced viability
[2]; 1 μM
  T-bra expression: higher T-bra expression

## Cn1cc(C2=C(c3ccc(Cl)cc3Cl)C(=O)NC2=O)c2ccccc21 [SB-216763]
[2]; 5 μM
  T-bra expression: higher T-bra expression

B1: Activin A: dimeric protein complex comprising two beta-A subunits (protein, UniProt P08476 311-426, looked up)
Inhibin beta A chain: GLECDGKVNICCKKQFFVSFKDIGWNDWIIAPSGYHANYCEGECPSHIAGTSGSSLSFHSTVINHYRMRGHSPFANLKSCCVPTKLRPMSMLYYDDGQNIIKKDIQNMIVEECGCS
modifications: Inhibin beta A chain homodimer
notes: dimeric protein complex comprising two beta-A subunits
[3]
  effect of factor on percent of KDR+ cells (DoE): did not significantly alter
[4]
  effect of factor on hematopoietic precursor generation (DoE): did not significantly alter
[5]
  effect of factor on KDR+ cells (DoE): significant factors for increased KDR+ cells
